Source: publication PMC6923765, “Structural Design, Synthesis, and Preliminary Biological Evaluation of Novel Dihomooxacalix[4]arene-Based Anti-tumor Agents” (Frontiers in Chemistry, 2019)
Read-outs that look alike come from different tables or passages of the source.

Key:
[1] = system: HUVEC cells (human umbilical vein endothelial cells); experiment: SRB cytotoxicity assay, HUVEC normal cells; assay type: cell-based
Description: (§1) A549 cells (human lung carcinoma cells), MCF-7 cells (human breast cancer cells), HeLa cells (human cervical cancer cells), HepG2 cells (human hepatocellular carcinoma cells), and HUVEC cells (human umbilical vein endothelial cells) were kindly provided by WeiFang Caleb Pharmaceuticals, Inc. A549 cells were cultured in Ham's F12K medium containing 10% fetal bovine serum, 2 mM L-glutamine, and 1.5 g/L sodium bicarbonate; MCF-7 cells were cultured on cell culture flask using RPMI 1640 medium with 2 mM L-glutamine adjusted to contain 1.5 g/L sodium bicarbonate, 4.5 g/L glucose, 10 mM HEPES, 1.0 mM sodium pyruvate, and 10% fetal bovine serum. Hela cells were cultured on Cell culture flask using 2 mM L-glutamine adjusted to contain 1.5 g/L sodium bicarbonate, 4.5 g/L glucose, 10 mM HEPES, and 1.0 mM sodium pyruvate in RPMI 1640 medium supplemented with 0.5 mg/ml G418 and 10% fetal bovine serum. HepG2 cells were cultured in minimum essential medium (Eagle) with 2 mM L-glutamine, Earle's BSS, 1.5 g/L sodium bicarbonate, 0.1 mM non-essential amino acids, 1.0 mM sodium pyruvate, and 10% fetal bovine serum. HUVEC cells were cultured in M199 medium containing 2 mM L-glutamine adjusted to contain 1.5 g/L sodium bicarbonate, 4.5 g/L glucose, 10 mM HEPES, 1.0 mM sodium pyruvate, ECGS, and 10% fetal bovine serum. All cells were cultured at 37°C in 5% CO2.
(§2) The cell proliferation of adherent cells was determined by sulforhodamine B assay (SRB) (Quan et al., [2009]; Li et al., [2017]). All cells were cultured in culture medium containing 10% fetal bovine serum and have been in the logarithmic growth phase. All cell types were seeded in a 96-well culture plate at a concentration of 1–5 × 10^4 cells per well at 37°C in a 5% CO2 incubator for 24 h. The cells were then exposed to seven drug concentrations of dihomooxacalix[4]arene derivatives for 72 h with each concentration located in three wells. Then, the cells were fixed with trichloroacetic acid (TCA). After washing, SRB working solution was added to the cells to […]. SRB combined with protein was dissolved in Tris base. OD values were measured for each well with a SPECTRA max 190 Cell microplate reader under 540 nm wavelength. According to the OD value, the cell growth inhibition rate was calculated.

[2] = system: MCF-7 cells (human breast cancer cells); experiment: SRB cytotoxicity assay, MCF-7 cells; assay type: cell-based; details: for inhibition at 10 µM: MCF7, 10 μM, 72 h
Description: as §1, §2

[3] = system: HeLa cells (human cervical cancer cells); experiment: SRB cytotoxicity assay, HeLa cells; assay type: cell-based
Description: as §1, §2

[4] = system: HepG2 cells (human hepatocellular carcinoma cells); experiment: SRB cytotoxicity assay, HepG2 cells; assay type: cell-based
Description: as §1, §2

[5] = system: A549 cells (human lung carcinoma cells); experiment: SRB cytotoxicity assay, A549 cells; assay type: cell-based
Description: as §1, §2

[6] = Homo sapiens, HUVEC, 72 h, 10 μM, SRB, toxicity to normal cells
[7] = 72 h, SRB, read-out: IC50 (μM) A549

CC(C)(C)c1cc2c(O)c(c1)Cc1cc(C(C)(C)C)cc(c1OCC(=O)NC1CCCC1)Cc1cc(C(C)(C)C)cc(c1O)Cc1cc(C(C)(C)C)cc(c1OCC(=O)NC1CCCC1)COC2 [Compound 4M, 7,13,19,25-tetra-tert-butyl-28,30-di-hydroxy-27,29-di-(N-clopentyl-aminocarbonylmethoxyl)-2,3-dihomo-3-oxacalix[4]arene]
inhibition at 10 µM [1, 6]: 14% | inhibition at 10 µM ([2]; SRB): 29% | melting point: 145.9 to 148.2 °C | inhibition at 10 µM ([3]; 72 h, SRB): 52% | inhibition at 10 µM ([4]; 72 h, SRB): 12% | inhibition at 10 µM ([5]; 72 h, SRB): 66% | IC50 [5, 7]: 10.1 ± 1.8 µM

COc1ccc(CCNC(=O)COc2c3cc(C(C)(C)C)cc2Cc2cc(C(C)(C)C)cc(c2O)Cc2cc(C(C)(C)C)cc(c2OCC(=O)NCCc2ccc(OC)c(OC)c2)Cc2cc(C(C)(C)C)cc(c2O)COC3)cc1OC [Compound 4P, 7,13,19,25-tetra-tert-butyl-28,30-di-hydroxy-27,29-di-(N-(3,4-dimethoxyphenethyl)-aminocarbonylmethoxyl)-2,3-dihomo-3-oxacalix [4]arene]
inhibition at 10 µM [1, 6]: 0% | inhibition at 10 µM ([2]; SRB): 0% | melting point: 117.4 to 120.1 °C | inhibition at 10 µM ([3]; 72 h, SRB): 37% | inhibition at 10 µM ([4]; 72 h, SRB): 11% | inhibition at 10 µM ([5]; 72 h, SRB): 22%

CCCCCNC(=O)COc1c2cc(C(C)(C)C)cc1Cc1cc(C(C)(C)C)cc(c1O)Cc1cc(C(C)(C)C)cc(c1OCC(=O)NCCCCC)Cc1cc(C(C)(C)C)cc(c1O)COC2 [Compound 4L, 7,13,19,25-tetra-tert-butyl-28,30-di-hydroxy-27,29-di-(N-pentyl-aminocarbonylmethoxyl)-2,3-dihomo-3-oxacalix[4] arene]
inhibition at 10 µM [1, 6]: 12% | inhibition at 10 µM ([2]; SRB): 41% | melting point: 117.7 to 119.3 °C | inhibition at 10 µM ([3]; 72 h, SRB): 49% | inhibition at 10 µM ([4]; 72 h, SRB): 18% | inhibition at 10 µM ([5]; 72 h, SRB): 66% | IC50 [5, 7]: 1.7 ± 0.4 µM

CCCCNC(=O)COc1c2cc(C(C)(C)C)cc1Cc1cc(C(C)(C)C)cc(c1O)Cc1cc(C(C)(C)C)cc(c1OCC(=O)NCCCC)Cc1cc(C(C)(C)C)cc(c1O)COC2 [Compound 4K, 7,13,19,25-tetra-tert-butyl-28,30-di-hydroxy-27,29-di-(N-butyl-aminocarbonylmethoxyl)-2,3-dihomo-3-oxacalix[4] arene]
inhibition at 10 µM [1, 6]: 1% | inhibition at 10 µM ([2]; SRB): 41% | melting point: 119.5 to 120.8 °C | inhibition at 10 µM ([3]; 72 h, SRB): 42% | inhibition at 10 µM ([4]; 72 h, SRB): 6% | inhibition at 10 µM ([5]; 72 h, SRB): 65% | IC50 [5, 7]: 4.5 ± 1.4 µM

CC(C)NC(=O)COc1c2cc(C(C)(C)C)cc1Cc1cc(C(C)(C)C)cc(c1O)Cc1cc(C(C)(C)C)cc(c1OCC(=O)NC(C)C)Cc1cc(C(C)(C)C)cc(c1O)COC2 [Compound 4I, 7,13,19,25-tetra-tert-butyl-28,30-di-hydroxy-27,29-di-(N-isopropyl-aminocarbonylmethoxyl)-2,3-dihomo-3-oxa calix[4]arene]
inhibition at 10 µM [1, 6]: 16% | inhibition at 10 µM ([2]; SRB): 17% | melting point: 133.3 to 135.7 °C | inhibition at 10 µM ([3]; 72 h, SRB): 44% | inhibition at 10 µM ([4]; 72 h, SRB): 9% | inhibition at 10 µM ([5]; 72 h, SRB): 45%

CC(C)(C)c1cc2c(O)c(c1)Cc1cc(C(C)(C)C)cc3c1OCC(=O)NCCNC(=O)COc1c(cc(C(C)(C)C)cc1Cc1cc(C(C)(C)C)cc(c1O)C3)COC2 [Compound 4E]
inhibition at 10 µM [1, 6]: 26% | inhibition at 10 µM ([2]; SRB): 50% | melting point: 204.8 to 206.3 °C | inhibition at 10 µM ([3]; 72 h, SRB): 46% | inhibition at 10 µM ([4]; 72 h, SRB): 21% | inhibition at 10 µM ([5]; 72 h, SRB): 60% | IC50 [5, 7]: 12.4 ± 2.2 µM

CC(C)(C)c1cc2c(O)c(c1)Cc1cc(C(C)(C)C)cc(c1OCC(=O)NCc1ccccc1)Cc1cc(C(C)(C)C)cc(c1O)Cc1cc(C(C)(C)C)cc(c1OCC(=O)NCc1ccccc1)COC2 [Compound 4N, 7,13,19,25-tetra-tert-butyl-28,30-di-hydroxy-27,29-di-(N-benzyl-aminocarbonylmethoxyl)-2,3-dihomo-3-oxacalix[4] arene]
inhibition at 10 µM [1, 6]: 21% | inhibition at 10 µM ([2]; SRB): 43% | melting point: 183.7 to 186.4 °C | inhibition at 10 µM ([3]; 72 h, SRB): 49% | inhibition at 10 µM ([4]; 72 h, SRB): 10% | inhibition at 10 µM ([5]; 72 h, SRB): 64% | IC50 [5, 7]: 6.8 ± 0.5 µM

CC(C)CNC(=O)COc1c2cc(C(C)(C)C)cc1Cc1cc(C(C)(C)C)cc(c1O)Cc1cc(C(C)(C)C)cc(c1OCC(=O)NCC(C)C)Cc1cc(C(C)(C)C)cc(c1O)COC2 [Compound 4J, 7,13,19,25-tetra-tert-butyl-28,30-di-hydroxy-27,29-di-(N-isobutyl-aminocarbonylmethoxyl)-2,3-dihomo-3-oxacalix [4]arene]
inhibition at 10 µM [1, 6]: 0% | inhibition at 10 µM ([2]; SRB): 40% | melting point: 128.1 to 130.8 °C | inhibition at 10 µM ([3]; 72 h, SRB): 35% | inhibition at 10 µM ([4]; 72 h, SRB): 10% | inhibition at 10 µM ([5]; 72 h, SRB): 54% | IC50 [5, 7]: 16.9 ± 3.2 µM

CC(C)(C)c1cc2c(O)c(c1)Cc1cc(C(C)(C)C)cc3c1OCC(=O)NCCCNC(=O)COc1c(cc(C(C)(C)C)cc1Cc1cc(C(C)(C)C)cc(c1O)C3)COC2 [Compound 4F]
inhibition at 10 µM [1, 6]: 42% | inhibition at 10 µM ([2]; SRB): 46% | melting point: 189.5 to 191.4 °C | inhibition at 10 µM ([3]; 72 h, SRB): 59% | inhibition at 10 µM ([4]; 72 h, SRB): 9% | inhibition at 10 µM ([5]; 72 h, SRB): 63% | IC50 [5, 7]: 2.9 ± 0.7 µM

CC(=O)O[C@H]1C(=O)[C@@]2(C)[C@H]([C@H](OC(=O)c3ccccc3)[C@]3(O)C[C@H](OC(=O)[C@H](O)[C@@H](NC(=O)c4ccccc4)c4ccccc4)C(C)=C1C3(C)C)[C@]1(OC(C)=O)CO[C@@H]1C[C@@H]2O [Paclitaxel, paclitaxel, reference compound]
IC50 ([1]; Homo sapiens, HUVEC, printed in the % inhibition column of Table 1, read-out: IC50 HUVEC (positive control)): 0.001 µM | IC50 ([2]; MCF7, printed in the % inhibition column of Table 1, read-out: IC50 MCF-7 (positive control)): 0.0008 µM | IC50 ([3]; HeLa, printed in the % inhibition column of Table 1, read-out: IC50 HeLa (positive control)): 0.0027 µM | IC50 ([4]; printed in the % inhibition column of Table 1, read-out: IC50 HepG2 (positive control)): 0.005 µM | IC50 ([5]; printed in the % inhibition column of Table 1, read-out: IC50 A549 (positive control)): 0.00059 µM

CC(C)(C)c1cc2c(O)c(c1)Cc1cc(C(C)(C)C)cc(c1OCC(=O)NCCO)Cc1cc(C(C)(C)C)cc(c1O)Cc1cc(C(C)(C)C)cc(c1OCC(=O)NCCO)C2 [CLX-4, 5,11,17,23-tetra-tert-butyl-25,27-bis [N-(2-hydroxyethyl)aminocarbonylmethoxyl] calix[4]arene, reference compound]
% inhibition at 10 μM HUVEC ([1]; 10 μM, 72 h, SRB, toxicity to normal cells): 16% | inhibition at 10 µM [1, 6]: 18% | inhibition at 10 µM ([2]; SRB): 99% | IC50 ([2]; MCF7, 72 h, SRB, read-out: IC50 (μM) MCF-7): 2.1 ± 0.4 µM | inhibition at 10 µM ([3]; 72 h, SRB): 92% | IC50 ([3]; 72 h, SRB, read-out: IC50 (μM) HeLa): 1.9 ± 0.2 µM | inhibition at 10 µM ([4]; 72 h, SRB): 94% | IC50 ([4]; 72 h, SRB, read-out: IC50 (μM) HepG2): 6.6 ± 0.8 µM | inhibition at 10 µM ([5]; 72 h, SRB): 93% | IC50 [5, 7]: 2.8 ± 0.3 µM
